In PubChem BioAssay AID248 (DTP/NCI, 2004):
Values joined by “and” are separate entries in the source; they are usually repeats but may differ in a detail not shown here. Identical values can stand only once. Toxic doses and inconclusive results are not listed. No stated cut-off is given here; in the data, active means T/C of 150% or more; inactive means T/C below 125%.

Test system: L1210 leukemia ip in BDF1 mice, survival T/C
Assay: NCI In Vivo Anticancer Drug Screen. Data for tumor model L1210 Leukemia (intraperitoneal) in B6D2F1 (BDF1) mice
Conditions: endpoint: mean survival time, higher = longer survival
Outline: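 Each compound was tested against a transplantable tumor grown in mice. The endpoint was survival, with treated animals benchmarked against vehicle controls as a simple ratio.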

[1] = dose: 100.0 mg/kg/injection, schedule: Q04DX003 (ip), vehicle: saline with Tween-80
[2] = dose: 200.0 mg/kg/injection, schedule: Q04DX003 (ip), vehicle: saline with Tween-80
[3] = dose: 100.0 mg/kg/injection, schedule: Q01DX001 (ip), vehicle: saline with Tween-80
[4] = dose: 200.0 mg/kg/injection, schedule: Q01DX001 (ip), vehicle: saline with Tween-80
[5] = dose: 400.0 mg/kg/injection, schedule: Q04DX003 (ip), vehicle: saline with Tween-80
[6] = dose: 100.0 mg/kg/injection, schedule: Q04DX003 (ip), vehicle: Klucel (hydroxypropylcellulose) (HPC)
[7] = dose: 200.0 mg/kg/injection, schedule: Q04DX003 (ip), vehicle: Klucel (hydroxypropylcellulose) (HPC)
[8] = dose: 400.0 mg/kg/injection, schedule: Q04DX003 (ip), vehicle: Klucel (hydroxypropylcellulose) (HPC)
[9] = dose: 100.0 mg/kg/injection, schedule: Q01DX001 (ip), vehicle: saline
[10] = dose: 200.0 mg/kg/injection, schedule: Q01DX001 (ip), vehicle: saline
[11] = dose: 100.0 mg/kg/injection, schedule: Q01DX001 (ip), vehicle: carboxymethylcellulose (CMC)
[12] = dose: 200.0 mg/kg/injection, schedule: Q01DX001 (ip), vehicle: carboxymethylcellulose (CMC)
[13] = dose: 400.0 mg/kg/injection, schedule: Q01DX001 (ip), vehicle: carboxymethylcellulose (CMC)
[14] = dose: 100.0 mg/kg/injection, schedule: Q01DX009 (ip), vehicle: saline with Tween-80
[15] = dose: 200.0 mg/kg/injection, schedule: Q01DX009 (ip), vehicle: saline with Tween-80
[16] = dose: 400.0 mg/kg/injection, schedule: Q01DX009 (ip), vehicle: saline with Tween-80
[17] = dose: 100.0 mg/kg/injection, schedule: Q01DX009 (ip), vehicle: Klucel (hydroxypropylcellulose) (HPC)
[18] = dose: 200.0 mg/kg/injection, schedule: Q01DX009 (ip), vehicle: Klucel (hydroxypropylcellulose) (HPC)
[19] = dose: 100.0 mg/kg/injection, schedule: Q01DX001 (ip), vehicle: Klucel (hydroxypropylcellulose) (HPC)
[20] = dose: 400.0 mg/kg/injection, schedule: Q01DX001 (ip), vehicle: Klucel (hydroxypropylcellulose) (HPC)

Measured: T/C

CN(C)c1ccc(-c2c3cc(O)c(=O)cc-3oc3cc(O)c(O)cc23)cc1
inactive: dose: 50.0 mg/kg/injection, schedule: Q04DX003 (ip), vehicle: saline with Tween-80 95 % of control | [1] 90 % of control | [2] 87 % of control

C/C=C(\C)c1cc(=O)c2c(C)cc3c(c2o1)C(=O)c1c(O)c(C2CC(C)(N(C)C)C(O)C(C)O2)cc(C2CC(N(C)C)C(O)C(C)O2)c1C3=O (centres undefined)
inactive: [3] 120 % of control | [4] 114 % of control

COc1c2c(c(OC)c3c1C(=O)c1ccccc1C3=O)CC(C(C)=O)CC2 (centres undefined)
inactive: [1] 94 % of control | [2] 92 % of control | [5] 92 % of control

CCCCNC(C)(C)C(SS)c1ccc(Cl)cc1 (centres undefined)
inactive: dose: 50.0 mg/kg/injection, schedule: Q01DX009 (ip), vehicle: other 94 % of control | dose: 100.0 mg/kg/injection, schedule: Q01DX009 (ip), vehicle: other 92 % of control

CCOC(=O)C1CCc2ccccc2CC1
inactive: dose: 200.0 mg/kg/injection, schedule: Q04DX003 (ip), vehicle: acetone 100 % of control

O=[N+]([O-])c1cc(Cl)cc2c1nc(NCCCO)c1ccccc12
inactive: [6] 105 % of control | [7] 108 % of control | [8] 102 % of control

CN(C(=S)Nc1ccccc1)c1cc(N2CCCC2)ccn1
inactive: [9] 98 % of control | [10] 98 % of control

O=C1c2cc(Cl)ccc2-c2c(F)cc(Cl)cc21
inactive: [11] 103 % of control | [12] 105 % of control | [13] 105 % of control

Cc1cccc(NC(=O)c2ccccc2Cl)c1C
inactive: [14] 103 % of control | [1] 95 % of control | [15] 95 % of control | [2] 93 % of control | [16] 104 % of control | [5] 91 % of control

CCOc1cccc(Cc2cn(CCC#N)c(=O)[nH]c2=O)c1
inactive: [6] 108 % of control | [7] 89 % of control | [8] 89 % of control

CCOC(=O)/C(=C\C(C(=O)OCC)C(=O)OCC)CC
inactive: [9] 106 % of control | [10] 103 % of control | dose: 400.0 mg/kg/injection, schedule: Q01DX001 (ip), vehicle: saline 95 % of control

CC1=C/C(=N\N=C2/C=C(C)CC(C)(C)C2)CC(C)(C)C1
inactive: [17] 95 % of control | [18] 105 % of control | dose: 400.0 mg/kg/injection, schedule: Q01DX009 (ip), vehicle: Klucel (hydroxypropylcellulose) (HPC) 100 % of control

CN1CCC(O)(c2ccc(F)cc2)C(C(=O)c2ccc(F)cc2)C1 (centres undefined)
inactive: dose: 50.0 mg/kg/injection, schedule: Q01DX001 (ip), vehicle: carboxymethylcellulose (CMC) 100 % of control | [11] 100 % of control | [12] 94 % of control | [13] 94 % of control

CCOC(=O)c1c(C)[nH]c(C)cc1=O
inactive: [3] 95 % of control | [14] 98 % of control | [4] 95 % of control | [15] 102 % of control | dose: 400.0 mg/kg/injection, schedule: Q01DX001 (ip), vehicle: saline with Tween-80 90 % of control | [16] 95 % of control

C#CCN(C)Cc1ccccc1
inactive: dose: 25.0 mg/kg/injection, schedule: Q01DX009 (ip), vehicle: saline 94 % of control | dose: 50.0 mg/kg/injection, schedule: Q01DX009 (ip), vehicle: saline 89 % of control | dose: 100.0 mg/kg/injection, schedule: Q01DX009 (ip), vehicle: saline 87 % of control | dose: 100.0 mg/kg/injection, schedule: Q04DX003 (ip), vehicle: saline 103 % of control | dose: 200.0 mg/kg/injection, schedule: Q01DX009 (ip), vehicle: saline 98 % of control | dose: 200.0 mg/kg/injection, schedule: Q04DX003 (ip), vehicle: saline 103 % of control | dose: 400.0 mg/kg/injection, schedule: Q04DX003 (ip), vehicle: saline 97 % of control

C=CC1=C(C)C(=O)N/C1=C\c1[nH]c(Cc2[nH]c(/C=C3/NC(=O)C(C(C)SC(C)=O)=C3C)cc2CCC(=O)O)c(CCC(=O)O)c1C (centres undefined)
inactive: dose: 100.0 mg/kg/injection, schedule: Q04DX002 (ip), vehicle: Klucel (hydroxypropylcellulose) (HPC) 101 % of control | dose: 200.0 mg/kg/injection, schedule: Q04DX002 (ip), vehicle: Klucel (hydroxypropylcellulose) (HPC) 108 % of control | dose: 400.0 mg/kg/injection, schedule: Q04DX002 (ip), vehicle: Klucel (hydroxypropylcellulose) (HPC) 97 % of control

COc1cc(OC)c(C(=O)CCl)c(O)c1Cl
inactive: [1] 99 % of control | [2] 104 % of control | [5] 92 % of control

CCCCn1nnc2ccc([N+](=O)[O-])cc2c1=O
inactive: [17] 92 % of control | [18] 87 % of control

CCCC(=O)c1cc(C)ccc1OC
inactive: [11] 103 % of control | [12] 106 % of control | [13] 106 % of control

O=S(=O)(O)C(I)I
inactive: dose: 6.25 mg/kg/injection, schedule: Q01DX001 (ip), vehicle: saline 103 % of control | dose: 12.5 mg/kg/injection, schedule: Q01DX001 (ip), vehicle: saline 100 % of control | dose: 25.0 mg/kg/injection, schedule: Q01DX001 (ip), vehicle: saline 98 % of control and 100 % of control | [9] 103 % of control

Cc1c(Cl)cccc1NC(=O)Oc1cc(Cl)c(Cl)cc1Cl
inactive: dose: 50.0 mg/kg/injection, schedule: Q01DX009 (ip), vehicle: saline with Tween-80 92 % of control | [14] 96 % of control | [1] 95 % of control | [2] 106 % of control

Clc1ccccc1C(=Nc1ccccc1)C(=Nc1ccccc1)c1ccccc1Cl
inactive: dose: 12.5 mg/kg/injection, schedule: Q01DX001 (ip), vehicle: Klucel (hydroxypropylcellulose) (HPC) 106 % of control | dose: 25.0 mg/kg/injection, schedule: Q01DX001 (ip), vehicle: Klucel (hydroxypropylcellulose) (HPC) 102 % of control | dose: 25.0 mg/kg/injection, schedule: Q04DX003 (ip), vehicle: Klucel (hydroxypropylcellulose) (HPC) 90 % of control | dose: 50.0 mg/kg/injection, schedule: Q01DX001 (ip), vehicle: Klucel (hydroxypropylcellulose) (HPC) 106 % of control | dose: 50.0 mg/kg/injection, schedule: Q04DX003 (ip), vehicle: Klucel (hydroxypropylcellulose) (HPC) 92 % of control | [19] 88 % of control | [6] 87 % of control | [20] 90 % of control

CCOC(=O)CCC(NC(=O)c1cc(Cl)c(N(C)S(=O)(=O)c2ccc(C)cc2)cc1Cl)C(=O)OCC (centres undefined)
inactive: [19] 107 % of control | [14] 94 % of control | dose: 200.0 mg/kg/injection, schedule: Q01DX001 (ip), vehicle: Klucel (hydroxypropylcellulose) (HPC) 108 % of control | [15] 97 % of control | [20] 102 % of control | [16] 94 % of control

Nc1nc(-c2ccccc2N=NN2CCN(N=Nc3ccccc3-c3nc(N)c4ccccc4n3)CC2)nc2ccccc12
inactive: [6] 101 % of control | [7] 96 % of control

O=C1Cc2ccccc2C(C(=O)O)O1 (centres undefined)
inactive: dose: 75.0 mg/kg/injection, schedule: Q01DX001 (ip), vehicle: saline 107 % of control | dose: 150.0 mg/kg/injection, schedule: Q01DX001 (ip), vehicle: saline 101 % of control | dose: 300.0 mg/kg/injection, schedule: Q01DX001 (ip), vehicle: saline 107 % of control
